Measurements: patent publication US20120093806A1, “ANTITUMOR COMBINATIONS CONTAINING ANTIBODIES RECOGNIZING SPECIFICALLY CD38 AND CYTARABINE” (SANOFI-AVENTIS, priority 2008, published 2012)
Values joined by “and” are separate entries in the source; they are usually repeats but may differ in a detail not shown here. Equal values may be shown once. Read-outs that look alike come from different tables or passages of the source.

Legend:
[1] = system: human T-cell acute lymphoblastic leukemia (T-ALL) cell line, DND-41; experiment: Antitumor efficacy against advanced DND-41 tumors implanted in SCID mice; format: in vivo; settings: days 18, 21, 24, 27; for TFS = tumor free survivors: day 160; for T-C = tumor growth delay: median time to reach 750 mg
Procedure: This efficacy may be quantified, for example, by the log10 cell kill, which is determined according to the following formula:
log10 cell kill=T−C (days)/3.32×Td
in which T−C represents the tumor growth delay, which is the median time in days for the tumors of the treated group (T) and the tumors of the control group (C) to reach a predetermined value (1 g for example), and Td represents the time in days needed for the volume of the tumor to double in the control animals [T. H. Corbett et al., Cancer, 40: 2660-2680 (1977); F. M. Schabel et al., Cancer Drug Development, Part B, Methods in Cancer Research, 17: 3-51, New York, Academic Press Inc. (1979)]. A product is considered to be active if log10 cell kill is greater than or equal to 0.7. A product is considered to be very active if log10 cell kill is greater than 2.8.
The tumors are measured 1 to 5 times a week, depending on the tumor doubling time, until the tumor reaches approximately 2 g, or until the animal dies (if this occurs before the tumor reaches 2 g). The animals are necropsied immediately after euthanasia or death.
Tumor doubling time=3.4 days.

[2] = days 18, 21, 24, 27; for BWC = body weight change: day in parentheses in cell
Procedure: The animals subjected to the experiment, generally mice, are subcutaneously grafted bilaterally with 30 to 60 mg of a tumor fragment on day 0. The animals bearing tumors are randomized based on their tumor size before being subjected to the various treatments and controls. Chemotherapy begins when tumors have reached a predetermined size after grafting, depending on the type of tumor, and the animals are observed every day. […] The groups are then weighed once or twice a week until the end of the trial.
The selected tumor model was a transplantable human T-cell acute lymphoblastic leukemia (T-ALL) cell line, DND-41, implanted in SCID mice.
Hu38SB19 was formulated in phosphate buffer saline, without Ca^2+ and Mg^2+, pH7.4. Hu38SB19 was administered intravenously on days 18, 21, 24, 27 after tumor implantation.

[3] = Palmo Ara-C 22.3 mg/kg/inj SC (total 89.2)
[4] = Palmo Ara-C 36.0 mg/kg/inj SC (total 144.0)
[5] = Palmo Ara-C 58.0 mg/kg/inj SC (total 232.0)
[6] = hu38SB19 40.0 mg/kg/inj IV (total 160.0)

In the case of `CCCCCCCCCCCCCCCC(=O)Nc1ccn([C@@H]2O[C@H](CO)[C@@H](O)[C@@H]2O)c(=O)n1` [Palmo Ara-C], the “comment (activity class)” value [1, 3] is reported as “Active”, the log10 cell kill [1, 3] is reported as 2.0 and the “TFS = tumor free survivors” value [1, 3] is reported as 0/6. The “T-C = tumor growth delay” value [1, 3] was 22.1 days, the log10 cell kill [1, 4] was 4.3 and the “TFS = tumor free survivors” value [1, 4] was “no TFS and 0/6”. The “T-C = tumor growth delay” value [1, 4] was 48.6 days, the log10 cell kill [1, 5] was 5.4 and the “comment (activity class)” value ([1]; Palmo Ara-C 58.0 mg/kg/inj SC (total 232.0), HNTD) was “HNTD—highly active”. The “TFS = tumor free survivors” value [1, 5] was 3/6, the “T-C = tumor growth delay” value [1, 5] was 60.5 days and the “BWC = body weight change” value [2, 3] was −0.5 (32). The “BWC = body weight change” value [2, 4] was −4.6 (30), the “BWC = body weight change” value [2, 5] was −6.1 (31) and the “BWC = body weight change” value ([2]; Palmo Ara-C 96.3 mg/kg/inj SC (total 385.2)) was −26.6 (31). The “highest nontoxic dose (HNTD)” value ([2]; Palmo Ara-C alone, SC) was 58.0 mg/kg/inj.
With “hu38SB19: humanized 38SB19 anti-CD38 antibody; VH SEQ ID NO: 66, VL chosen from SEQ ID NOS: 62 and 64” the log10 cell kill [1, 6] was 0.5, the “TFS = tumor free survivors” value [1, 6] was 0/6 and the “comment (activity class)” value ([1]; hu38SB19 40.0 mg/kg/inj IV (total 160.0), highest dose tested, 40 mg/kg) was “HDT—Inactive”. The “comment (activity class)” value ([1]; hu38SB19 40.0 mg/kg/inj IV (total 160.0), highest dose tested, listed as hu38 DB19) was “not active”, the “T-C = tumor growth delay” value [1, 6] was 6.1 days and the “drug death (deaths/mice treated)” value [2, 6] was 0/6. The “BWC = body weight change” value [2, 6] was −2.1 (19).
